Measurements taken from the NIST ThermoML archive (doi:10.1021/acs.jced.8b00142).
± gives the expanded uncertainty stated by the source.

Columns and labels:
[1] = 86 kPa, Liquid, Vibrating tube method
[2] = wn = mass fraction of the nth substance listed; settings: 86 kPa, Liquid, Vibrating tube method

Structure (SMILES)	mass density ([1]; 298.15 K) [kg/m3]	mass density ([1]; 313.15 K) [kg/m3]	mass density ([1]; 323.15 K) [kg/m3]	mass density ([1]; 333.15 K) [kg/m3]	mass density ([1]; 343.15 K) [kg/m3]	mass density ([2]; 298.15 K, w1 = 0.2573) [kg/m3]	mass density ([2]; 298.15 K, w1 = 0.3) [kg/m3]	mass density ([2]; 298.15 K, w1 = 0.5) [kg/m3]	mass density ([2]; 313.15 K, w1 = 0.2573) [kg/m3]	mass density ([2]; 313.15 K, w1 = 0.3) [kg/m3]	mass density ([2]; 313.15 K, w1 = 0.5) [kg/m3]	mass density ([2]; 323.15 K, w1 = 0.3) [kg/m3]	mass density ([2]; 323.15 K, w1 = 0.5) [kg/m3]	mass density ([2]; 333.15 K, w1 = 0.3) [kg/m3]	mass density ([2]; 333.15 K, w1 = 0.5) [kg/m3]	mass density ([2]; 343.15 K, w1 = 0.3) [kg/m3]	mass density ([2]; 343.15 K, w1 = 0.5) [kg/m3]	mass density ([2]; 348.17 K, w1 = 0.2573) [kg/m3]
CN(CCO)CCO [N-methyldiethanolamine]	1036.4 ± 4.1	1025.1 ± 4.1	1017.5 ± 4.1	1009.9 ± 4.1	1002.2 ± 4.1	–	–	–	–	–	–	–	–	–	–	–	–	–
CCCC[n+]1ccccc1.F[B-](F)(F)F [1-butylpyridinium tetrafluoroborate]	1213.9 ± 4.2	1203.8 ± 4.2	1197 ± 4.2	1190.3 ± 4.2	1183.6 ± 4.2	–	–	–	–	–	–	–	–	–	–	–	–	–
CN(CCO)CCO [N-methyldiethanolamine] + O	–	–	–	–	–	1020.5 ± 4	1024.7 ± 4	1042.5 ± 4	1013.5 ± 4	1017.1 ± 4	1032.8 ± 4	1009.6 ± 4	1026 ± 4	1002.7 ± 4	1018.7 ± 4	995.1 ± 4	1011.2 ± 4	988.9 ± 4
